Assay results as given in ChEMBL document CHEMBL1201862, “PubChem BioAssay data set” (2004).
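Method: 48-hour compound exposure of cells in 96-well plates, five concentrations, linear interpolation of endpoints. GI50 marks 50% less growth.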 The source made the active and inactive calls. Rule as the data show it: active = GI50 up to about 1.1 µM and inactive = higher.

Assays:
Assay in all cases: NCI anticancer screen, dose series, 48 h
NCI-H23 = tested on: NCI-H23
HCC 2998 = tested on: HCC 2998
HT-29 = tested on: HT-29
A549 = tested on: A549
CAKI-1 = tested on: CAKI-1
UACC-62 = tested on: UACC-62
HL-60 = tested on: HL-60
SK-MEL-2 = tested on: SK-MEL-2
HOP-62 = tested on: HOP-62
M14 = tested on: M14
EKVX = tested on: EKVX
SF-295 = tested on: SF-295
UO-31 = tested on: UO-31
OVCAR-3 = tested on: OVCAR-3
NCI-H226 = tested on: NCI-H226
RXF 393 = tested on: RXF 393
ACHN = tested on: ACHN
SK-MEL-28 = tested on: SK-MEL-28
SR = tested on: SR

Measured: GI50

COc1ccc(N2C(=O)C3C=CC(n4[nH]c(=O)n(Cc5ccccc5)c4=O)CC3C2=O)cc1 (centres undefined)
inactive: NCI-H23 > 100 µM | HCC 2998 > 100 µM | HT-29 > 100 µM | A549 > 100 µM | CAKI-1 > 100 µM | UACC-62 > 100 µM | HL-60 > 100 µM | SK-MEL-2 > 100 µM | HOP-62 > 100 µM | M14 > 100 µM | EKVX > 100 µM | SF-295 > 100 µM | UO-31 > 100 µM | OVCAR-3 > 100 µM | NCI-H226 > 100 µM | RXF 393 > 100 µM | ACHN > 100 µM | SK-MEL-28 > 100 µM

CCOC1=C2N=C(Cc3ccc(F)cc3)NC2C(=O)c2ccccc21 (centres undefined)
inactive: NCI-H23 18.3 µM | HCC 2998 25.8 µM | HT-29 21.1 µM | UACC-62 22.1 µM | HL-60 4.68 µM | SK-MEL-2 17.6 µM | HOP-62 58.9 µM | M14 25.5 µM | EKVX 23.2 µM | UO-31 4.69 µM | OVCAR-3 18.6 µM | RXF 393 18.3 µM | ACHN 14 µM | SK-MEL-28 27.5 µM

O=C(O)CCC(NC(=O)c1ccc(Nc2nc3cc(C(F)(F)F)ccc3nc2C(=O)O)cc1)C(=O)O (centres undefined)
inactive: NCI-H23 > 100 µM | HCC 2998 > 100 µM | HT-29 > 100 µM | A549 > 100 µM | UACC-62 > 100 µM | HL-60 > 100 µM | SK-MEL-2 > 100 µM | SR > 100 µM | HOP-62 > 100 µM | M14 > 100 µM | EKVX > 100 µM | SF-295 > 100 µM | UO-31 > 100 µM | OVCAR-3 > 100 µM | NCI-H226 > 100 µM | RXF 393 > 100 µM | ACHN > 100 µM | SK-MEL-28 > 100 µM

COC(=O)c1cccc(C(=O)OC)c1
inactive: NCI-H23 > 100 µM | HCC 2998 > 100 µM | HT-29 > 100 µM | A549 > 100 µM | CAKI-1 > 100 µM | HL-60 > 100 µM | SK-MEL-2 > 100 µM | SR > 100 µM | HOP-62 > 100 µM | M14 > 100 µM | SF-295 > 100 µM | NCI-H226 > 100 µM | RXF 393 > 100 µM | ACHN > 100 µM | SK-MEL-28 > 100 µM

O=C1NC2(CCCCC2)C2CCCCCC12 (centres undefined)
inactive: NCI-H23 > 100 µM | HCC 2998 > 100 µM | HT-29 > 100 µM | A549 > 100 µM | UACC-62 > 100 µM | HL-60 > 100 µM | SR > 100 µM | HOP-62 > 100 µM | M14 > 100 µM | EKVX > 100 µM | SF-295 > 100 µM | UO-31 > 100 µM | OVCAR-3 > 100 µM | NCI-H226 > 100 µM | RXF 393 > 100 µM | ACHN > 100 µM | SK-MEL-28 > 100 µM

Cn1c2c(c3ccccc31)CCN(CCCCN1CCCCC1)C2=O
inactive: NCI-H23 > 100 µM | HT-29 61 µM | A549 > 100 µM | CAKI-1 > 100 µM | UACC-62 28.3 µM | HL-60 > 100 µM | SK-MEL-2 > 100 µM | HOP-62 > 100 µM | M14 99.1 µM | EKVX > 100 µM | SF-295 > 100 µM | UO-31 > 100 µM | OVCAR-3 > 100 µM | RXF 393 > 100 µM | ACHN > 100 µM | SK-MEL-28 16.8 µM

COc1ccc([C@H]2C=[N+]([O-])O[C@H](OC3CCCC3)[C@@H]2OC(C)=O)cc1OC
inactive: NCI-H23 25.6 µM | HCC 2998 13.2 µM | HT-29 20.7 µM | A549 29.4 µM | CAKI-1 14 µM | UACC-62 22.8 µM | HL-60 18.5 µM | SK-MEL-2 69.3 µM | SR 41.8 µM | HOP-62 72.1 µM | M14 21.4 µM | EKVX 22.3 µM | SF-295 > 100 µM | UO-31 18.7 µM | OVCAR-3 26 µM | NCI-H226 47.6 µM | RXF 393 13.3 µM | ACHN 22.2 µM | SK-MEL-28 20.8 µM

CCOC(=O)NC(=O)c1cn(CCSCCOC(=O)NCCCCCCNC(=O)OCCSCCn2cc(C(=O)NC(=O)OCC)c(=O)[nH]c2=O)c(=O)[nH]c1=O
inactive: NCI-H23 > 100 µM | HT-29 > 100 µM | A549 > 100 µM | CAKI-1 > 100 µM | UACC-62 > 100 µM | HL-60 > 100 µM | HOP-62 > 100 µM | M14 > 100 µM | EKVX > 100 µM | SF-295 > 100 µM | UO-31 > 100 µM | OVCAR-3 > 100 µM | RXF 393 > 100 µM | ACHN > 100 µM | SK-MEL-28 > 100 µM

CN(C)CCSc1nccc(-c2ccc(-c3ccnc(SCCN(C)C)n3)s2)n1
inactive: NCI-H23 11.2 µM | HCC 2998 6.08 µM | HT-29 2.57 µM | A549 12.4 µM | CAKI-1 13.5 µM | UACC-62 15.3 µM | HL-60 2.37 µM | SK-MEL-2 13.6 µM | HOP-62 15.9 µM | EKVX 18.2 µM | SF-295 10.7 µM | UO-31 4.94 µM | OVCAR-3 13.4 µM | NCI-H226 12.9 µM | RXF 393 6.14 µM | SK-MEL-28 19.1 µM

CC1(C)C2CCC3(OCCO3)C1C(O)C2 (centres undefined)
inactive: NCI-H23 > 100 µM | HCC 2998 > 100 µM | HT-29 > 100 µM | A549 > 100 µM | CAKI-1 > 100 µM | UACC-62 > 100 µM | HL-60 > 100 µM | SK-MEL-2 > 100 µM | HOP-62 > 100 µM | M14 > 100 µM | EKVX > 100 µM | SF-295 > 100 µM | UO-31 > 100 µM | OVCAR-3 > 100 µM | NCI-H226 > 100 µM | RXF 393 > 100 µM | ACHN > 100 µM | SK-MEL-28 > 100 µM

CCOC(=O)CC(NC(=O)c1ccc(/N=N/N(C)C)cc1)C(=O)OCC (centres undefined)
inactive: NCI-H23 > 100 µM | HCC 2998 > 100 µM | HT-29 > 100 µM | A549 > 100 µM | CAKI-1 > 100 µM | UACC-62 63.4 µM | HL-60 > 100 µM | SK-MEL-2 > 100 µM | SR > 100 µM | HOP-62 > 100 µM | M14 > 100 µM | EKVX > 100 µM | SF-295 > 100 µM | UO-31 > 100 µM | OVCAR-3 > 100 µM | NCI-H226 > 100 µM | ACHN > 100 µM | SK-MEL-28 > 100 µM
